Test results from patent US20080293712A1, “Benzo[C][2,7]Naphtyridine Derivatives, Methods of Making Thereof and Methods of Use Thereof” (WYETH, priority 2007, published 2008).
pIC50: −log10 of the molar value.

biological target: T1, PDK-1 (Homo sapiens, UniProt O15530); assay: PDK-1 kinase inhibition ELISA assay (phosphorylation of His6-tagged SGK1 S422D by PDK-1); type: biochemical; conditions: not given
T1 sequence (O15530 1-556): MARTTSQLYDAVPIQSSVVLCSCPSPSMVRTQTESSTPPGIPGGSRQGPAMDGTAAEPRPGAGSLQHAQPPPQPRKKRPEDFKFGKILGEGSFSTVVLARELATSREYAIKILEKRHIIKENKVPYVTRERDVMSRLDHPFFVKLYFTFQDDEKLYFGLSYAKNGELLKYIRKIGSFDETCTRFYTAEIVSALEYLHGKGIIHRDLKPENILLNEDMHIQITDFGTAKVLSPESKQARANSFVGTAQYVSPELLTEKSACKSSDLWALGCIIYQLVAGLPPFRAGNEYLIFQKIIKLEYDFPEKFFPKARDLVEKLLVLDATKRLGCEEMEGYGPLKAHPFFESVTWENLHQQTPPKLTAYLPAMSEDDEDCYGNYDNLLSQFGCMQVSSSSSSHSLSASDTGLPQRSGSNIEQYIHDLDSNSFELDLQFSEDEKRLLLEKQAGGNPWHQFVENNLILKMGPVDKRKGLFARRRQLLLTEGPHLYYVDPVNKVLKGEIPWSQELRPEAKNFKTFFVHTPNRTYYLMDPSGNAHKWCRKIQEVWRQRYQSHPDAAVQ

Row | pIC50 | Structure (SMILES)
1 | 6.13 | COCCOc1cc2ncc3c(N)nc(N(C)C)cc3c2cc1OC [Ia-60, 9-Methoxy-8-(2-methoxyethoxy)-N^2,N^2-dimethylbenzo[c]-2,7-naphthyridine-2,4-diamine]
2 | 5.13 | COCCNc1cc2c(cnc3cc(OCCOC)c(OC)cc32)c(N)n1 [Ia-55, 9-methoxy-8-(2-methoxyethoxy)-N^2-(2-methoxyethyl)benzo[c]-2,7-naphthyridine-2,4-diamine]
3 | 6.42 | COc1ccc(Nc2cncc(-c3cc4c(cnc5cc(OC)c(OC)cc54)c(N)n3)c2)cc1 [Ib-177, 8,9-dimethoxy-2-{5-[(4-methoxyphenyl)amino]pyridin-3-yl}benzo[c][2,7]naphthyridin-4-amine]

same assay, conditions: PDK-1 ELISA, Table 11; read-out: Average IC50

Row | Structure (SMILES) | pIC50
4 | COc1cc2ncc3c(NO)nc(-c4cncc(OC[C@@H](N)Cc5c[nH]c6ccccc56)c4)cc3c2cc1OC [Compound I-1, 2-(5-{[(2S)-2-amino-3-(1H-indol-3-yl)propyl]oxy}pyridin-3-yl)-N-hydroxy-8,9-dimethoxybenzo[c]-2,7-naphthyridin-4-amine] | 7.10
5 | COc1cc2ncc3c(N)nc(-c4cncc(OC[C@@H](N)CNC(C)(C)Cc5ccc(F)cc5)c4)cc3c2cc1OC [Ib-87, (2S)-3-{[5-(4-amino-8,9-dimethoxybenzo[c][2,7]naphthyridin-2-yl)pyridin-3-yl]oxy}-N1-[2-(4-fluorophenyl)-1,1-dimethylethyl]propane-1,2-diamine] | 7.92
6 | COCCOc1cc2ncc3c(N)nc(NCCN4CCCCC4)cc3c2cc1OC [Ia-49, 9-methoxy-8-(2-methoxyethoxy)-N^2-(2-piperidin-1-ylethyl)benzo[c]-2,7-naphthyridine-2,4-diamine] | < 4.70
7 | COc1cc2ncc3c(NO)nc(-c4cncc(OC[C@@H](N)Cc5cccc(Cl)c5)c4)cc3c2cc1OC [Compound I-2, 2-(5-{[(2S)-2-amino-3-(3-chlorophenyl)propyl]oxy}pyridin-3-yl)-N-hydroxy-8,9-dimethoxybenzo[c]-2,7-naphthyridin-4-amine] | < 7.00
8 | COc1cc2ncc3c(N)nc(-c4ccc(Br)c(F)c4)cc3c2cc1OC [Ib-234, 2-(4-bromo-3-fluorophenyl)-8,9-dimethoxybenzo[c][2,7]naphthyridin-4-amine] | 6.00
9 | COc1cc2ncc3c(N)nc(-c4cccc(C(=O)O)c4)cc3c2cc1OC [Ib-76, 3-(4-amino-8,9-dimethoxybenzo[c][2,7]naphthyridin-2-yl)benzoic acid] | 6.28
10 | COc1cc2ncc3c(N)nc(-c4cc(F)cc(F)c4)cc3c2cc1OC [Ib-239, 2-(3,5-difluorophenyl)-8,9-dimethoxybenzo[c][2,7]naphthyridin-4-amine] | 6.00
11 | COCCOc1cc2ncc3c(N)nc(N(C)C(C)C)cc3c2cc1OC [Ia-45, N^2-isopropyl-9-methoxy-8-(2-methoxyethoxy)-N^2-methylbenzo[c]-2,7-naphthyridine-2,4-diamine] | 5.84
12 | COc1cc2ncc3c(N)nc(-c4cncc(OC[C@@H](N)CNC5CCOCC5)c4)cc3c2cc1OC [Ib-96, (2S)-3-{[5-(4-amino-8,9-dimethoxybenzo[c][2,7]naphthyridin-2-yl)pyridin-3-yl]oxy}-N1-(tetrahydro-2H-pyran-4-yl)propane-1,2-diamine] | 7.59
13 | COCCN(C)c1cc2ncc3c(N)nc(-c4cncc(OC[C@@H](N)Cc5ccccc5)c4)cc3c2cc1OC [Ia-38, 2-(5-{[(2S)-2-amino-3-phenylpropyl]oxy}pyridine-3-yl)-9-methoxy-N^8-(2-methoxyethyl)-N^8-methylbenzo[c]-2,7-naphthyridin-4,8-diamine] | 7.16
14 | COc1cc2ncc3c(N)nc(-c4cncc(Nc5ccccc5N5CCOCC5)c4)cc3c2cc1OC [Ib-184b, 8,9-dimethoxy-2-{5-[(2-morpholin-4-ylphenyl)amino]pyridin-3-yl}benzo[c][2,7]naphthyridin-4-amine] | 7.13
15 | COc1cc2c(cc1OCCN1CCN(C)CC1)ncc1c(N)nc(-n3ccnc3)cc12 [Ia-10, 2-(1H-imidazol-1-yl)-9-methoxy-8-(2-(4-methylpiperazin-1-yl)ethoxy)benzo[c][2,7]naphthyridin-4-amine] | 5.94

Continued, values first:

Row | pIC50 | Structure (SMILES)
16 | 8.30 | COc1cc2ncc3c(N)nc(-c4cncc(OC[C@@H](N)CNc5ccc(F)c(Cl)c5)c4)cc3c2cc1OC [Ib-84, (2S)-3-{[5-(4-amino-8,9-dimethoxybenzo[c][2,7]naphthyridin-2-yl)pyridin-3-yl]oxy}-N1-(3-chloro-4-fluorophenyl)propane-1,2-diamine]
17 | 7.85 | COc1cc2ncc3c(N)nc(-c4cncc(OC[C@@H](N)CNCC(F)(F)F)c4)cc3c2cc1OC [Ib-109, (2S)-3-{[5-(4-amino-8,9-dimethoxybenzo[c][2,7]naphthyridin-2-yl)pyridin-3-yl]oxy}-N1-(2,2,2-trifluoroethyl)propane-1,2-diamine]
18 | 7.57 | COc1cc2ncc3c(N)nc(-c4cncc(Nc5cccc(CN)c5)c4)cc3c2cc1OC [Ib-189, 2-(5-{[3-(aminomethyl)phenyl]amino}pyridin-3-yl)-8,9-dimethoxybenzo[c][2,7]naphthyridin-4-amine]
19 | 7.29 | COc1cc2ncc3c(N)nc(-c4cncc(Nc5ccccc5N)c4)cc3c2cc1OC [Ib-182, N-[5-(4-amino-8,9-dimethoxybenzo[c][2,7]naphthyridin-2-yl)pyridin-3-yl]benzene-1,2-diamine]
20 | 6.80 | COc1cc2ncc3c(N)nc(-c4cncc(Nc5cccnc5)c4)cc3c2cc1OC [Ib-200, 8,9-dimethoxy-2-[5-(pyridin-3-ylamino)pyridin-3-yl]benzo[c][2,7]naphthyridin-4-Amine]
21 | 7.22 | COc1cc2ncc3c(N)nc(-c4cncc(Oc5ncccc5N)c4)cc3c2cc1OC [Ib-169, 2-{5-[(3-Aminopyridin-2-yl)oxy]pyridin-3-yl}-8,9-dimethoxybenzo[c][2,7]naphthyridin-4-amine]
22 | 8.70 | CC[C@@H](N)COc1cncc(-c2cc3c(cnc4cc(OC)c(OC)cc43)c(N)n2)c1 [Ib-18, 2-(5-{[(2R)-2-aminobutyl]oxy}pyridin-3-yl)-8,9-dimethoxybenzo[c]-2,7-naphthyridin-4-amine]
23 | 7.42 | COc1cc2ncc3c(N)nc(-c4cncc(OC[C@@H](Cc5ccccc5)NC=O)c4)cc3c2cc1OC [Ib-16, N-((1R)-2-{[5-(4-amino-8,9-dimethoxybenzo[c]-2,7-naphthyridin-2-yl)pyridin-3-yl]oxy}-1-benzylethyl)formamide]
24 | 7.09 | COc1cc2ncc3c(N)nc(-c4cncc(OC[C@@H](N)Cc5ccc(N)cc5)c4)cc3c2cc1OC [Ib-19, 2-(5-{[(2S)-2-amino-3-(4-aminophenyl)propyl]oxy}pyridin-3-yl)-8,9-dimethoxybenzo[c]-2,7-naphthyridin-4-amine]
25 | 7.38 | COc1cc2ncc3c(N)nc(-c4cncc(OC[C@@H](N)CN5CCN(c6ccncc6)CC5)c4)cc3c2cc1OC [Ib-107, 2-(5-{[(2S)-2-amino-3-(4-pyridin-4-ylpiperazin-1-yl)propyl]oxy}pyridin-3-yl)-8,9-dimethoxybenzo[c][2,7]naphthyridin-4-amine]
26 | 8.40 | COc1cc2ncc3c(N)nc(-c4cncc(OC[C@@H](N)CSc5ccccc5)c4)cc3c2cc1OC [Ib-162, 2-(5-{[(2R)-2-amino-3-(phenylthio)propyl]oxy}pyridin-3-yl)-8,9-dimethoxybenzo[c][2,7]naphthyridin-4-amine]
27 | 7.28 | COc1cc2ncc3c(N)nc(-c4cncc(C#CCN)c4)cc3c2cc1OC [Ib-252, 2-[5-(3-aminoprop-1-yn-1-yl)pyridin-3-yl]-8,9-dimethoxybenzo[c][2,7]naphthyridin-4-amine]
28 | 7.42 | COc1cc2ncc3c(N)nc(-c4cncc(OC[C@@H](N)CN5CCC[C@@H]5c5nccs5)c4)cc3c2cc1OC [Ib-102, 2-[5-({(2S)-2-amino-3-[(2R)-2-(1,3-thiazol-2-yl)pyrrolidin-1-yl]propyl}oxy)pyridin-3-yl]-8,9-dimethoxybenzo[c][2,7]naphthyridin-4-amine]
29 | 7.11 | COc1cc2ncc3c(N)nc(-c4cncc(OC[C@@H](N)CNC(C)(C)C)c4)cc3c2cc1OC [Ib-86, (2S)-3-{[5-(4-amino-8,9-dimethoxybenzo[c][2,7]naphthyridin-2-yl)pyridin-3-yl]oxy}-N1-tert-butylpropane-1,2-diamine]
30 | 7.74 | C=CCOc1cncc(-c2cc3c(cnc4cc(OC)c(OC)cc43)c(N)n2)c1 [Ib-266, 2-(5-(Allyloxy)pyridin-3-yl)-8,9-dimethoxybenzo[c][2,7]naphthyridin-4-amine]
31 | 7.18 | COc1cc2ncc3c(N)nc(-c4cncc(OC[C@@H](N)CN5CCN(c6ccccn6)CC5)c4)cc3c2cc1OC [Ib-20, 2-(5-{[(2S)-2-amino-3-(4-pyridin-2-ylpiperazin-1-yl)propyl]oxy}pyridin-3-yl)-8,9-dimethoxybenzo[c]-2,7-naphthyridin-4-amine]
32 | 8.00 | COc1cc2ncc3c(N)nc(-c4cncc(OC[C@@H](N)COc5nccc6ccccc56)c4)cc3c2cc1OC [Ib-147, 2-(5-{[(2R)-2-amino-3-(isoquinolin-1-yloxy)propyl]oxy}pyridin-3-yl)-8,9-dimethoxybenzo[c][2,7]naphthyridin-4-amine]
33 | 6.74 | COc1cc2ncc3c(N)nc(-c4cncc(Nc5ccc(C(N)=O)cc5)c4)cc3c2cc1OC [Ib-206, 4-{[5-(4-amino-8,9-dimethoxybenzo[c][2,7]naphthyridin-2-yl)pyridin-3-yl]amino}benzamide]
